The conditions of series [1]: as measured at 25° C.; for a monocarboxylic acid pKa1 is the pKa; cited from earlier work.
A short description of series [2]: Dynamic vapour sorption (DVS). In kind it is physicochemical. The conditions noted are these: for DVS mass uptake / DVS mass uptake as equivalents of water: at 90% RH, 25° C.; for solid form after DVS (XRPD): post-DVS; for hygroscopicity: DVS up to 90% RH. As for the experimental part:
Approximately 10-20 mg of sample was placed into a mesh vapour sorption balance pan and loaded into an Intrinsic dynamic vapour sorption balance by Surface Measurement Systems. The sample was subjected to a ramping profile from 40-90% relative humidity (RH) at 10% increments, maintaining the sample at each step until a stable weight had been achieved (dm/dt 0.004%, minimum step length 30 minutes, maximum step length 500 minutes) at 25° C. After completion of the sorption cycle, the sample was dried using the same procedure to 0% RH and then a second sorption cycle back to 40% RH. Two cycles were performed. The weight change during the sorption/desorption cycles were plotted, allowing for the hygroscopic nature of the sample to be determined. XRPD analysis was then carried out on any solid retained.

Series [3] is described as follows: Thermodynamic solubility. To be noted: unbuffered water, thermodynamic from solid.

Here are results for ten molecules from patent publication US12109192B2, “Organic acid addition salts of S-pindolol” (ACTIMED THERAPEUTICS LTD, priority 2020, dated 2024).

Converted amounts (≈) assume the structure as drawn. Like-named read-outs stand apart in the source and are kept apart here.

On to `O=C(O)c1cccc2ccccc12` [1-naphthoic acid], for which, in series [1], the pKa1 is given as 3.67.
Turning to `O=C(O)c1ccc2ccccc2c1` [2-naphthoic acid], the pKa1 in series [1] is 4.16.
For `O=C(O)[C@@H](O)c1ccccc1` [S-(+)-mandelic acid], the pKa1 in series [1] is given as 3.37.
Consider `CC(C)NC[C@H](O)COc1cccc2[nH]ccc12.O=C(O)c1ccccc1` [S-pindolol benzoate Pattern 1, S-pindolol benzoate], for which, in series [2], the DVS mass uptake amounted to 0.23 wt. %; the “DVS mass uptake as equivalents of water” value worked out at 0.05 eq. water; the “solid form after DVS (XRPD)” value is recorded as “Pattern 1 retained, mass uptake”. Moreover, under “pH 1.2”, the “Thermodynamic solubility, free base concentration” value came to 29.9 mg/mL and the “solid form after thermodynamic solubility experiment” value is recorded as “Converted to amorphous”. For the setting “pH 4.5”, the “Thermodynamic solubility, free base concentration” value is 20.1 mg/mL and the “solid form after thermodynamic solubility experiment” value was “Converted to amorphous”. For the setting “pH 6.8”, the “Thermodynamic solubility, free base concentration” value is reported as 17.4 mg/mL and the “solid form after thermodynamic solubility experiment” value is given as “Pattern 1 retained”.
Take `CC(C)NC[C@H](O)COc1cccc2[nH]ccc12.O=C(O)c1ccccc1` [S-pindolol benzoate Pattern 2, S-pindolol benzoate]: in series [2], the hygroscopicity result is “non-hygroscopic” and the “solid form after DVS (XRPD)” value was “Pattern 2 retained, organic solvent”. Also, for the setting “pH 1.2”, the “Thermodynamic solubility, free base concentration” value is 23.5 mg/mL and the “solid form after thermodynamic solubility experiment” value is reported as “Salt disproportionated”. Moreover, for the setting “pH 4.5”, the “Thermodynamic solubility, free base concentration” value is recorded as 17.6 mg/mL and the “solid form after thermodynamic solubility experiment” value is listed as “Pattern 2 retained”. Further, where the note is “pH 6.8”, the “Thermodynamic solubility, free base concentration” value stood at 9.9 mg/mL and the “solid form after thermodynamic solubility experiment” value is listed as “Pattern 2 retained”.
Turning to `CC(C)NC[C@H](O)COc1cccc2[nH]ccc12` [S-pindolol free base, (2S)-1-(1H-indol-4-yloxy)-3-(propan-2-ylamino)propan-2-ol, reference compound], in series [2], the hygroscopicity result is “slightly hygroscopic”, the DVS mass uptake was 0.36 wt. %, the “DVS mass uptake as equivalents of water” value turned out to be 0.05 eq. water and the “solid form after DVS (XRPD)” value is listed as “remained unchanged”. The same molecule showed a solubility (thermodynamic) in series [3] of 1.8 mg/mL (≈ 7.25 mM).
As for `CC(C)NC[C@H](O)COc1cccc2[nH]ccc12.O=C(O)CCC(=O)O` [S-pindolol succinate Pattern 1, S-pindolol succinate], in series [2], the DVS mass uptake is 0.70 wt. %, the “DVS mass uptake as equivalents of water” value is listed as 0.14 eq. water and the “solid form after DVS (XRPD)” value was “retained”.
As for `O=C(O)CCCC(=O)O` [glutaric acid], the pKa1 in series [1] is 4.34.
Consider `O=C(O)Cc1ccccc1` [phenylacetic acid], for which the pKa1 in series [1] was 4.31.
Regarding `Cc1ccccc1C(=O)O` [toluic acid], the pKa1 in series [1] is on record as 4-5.
